According to ChEMBL document CHEMBL1201862, “PubChem BioAssay data set” (2004):
Calls of active or inactive are those of the source.

How the values were obtained:
[1] = THP-1 cell cytotoxicity, cytotoxicity control, set 5 (AID 588443); format: functional
[2] = biological target: Large T antigen (Simian virus 40, UniProt P03070); format: functional, Betapolyomavirus macacae;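 further: Confirmatory-stage PubChem screen for compounds that inhibit SV40 T antigen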
[3] = biological target: Intestinal-type alkaline phosphatase (Homo sapiens, UniProt P09923); assay: activation of human intestinal alkaline phosphatase – biochemical, dose response (AID 488873); format: functional
[4] = biological target: FAD-linked sulfhydryl oxidase ALR (Homo sapiens, UniProt P55789); assay: ALR-catalysed DTT oxidation blockers – biochemical, H2O2 detection, luminescence, cherry-pick, dose response (AID 493248)
[5] = biological target: Intestinal-type alkaline phosphatase (Mus musculus, UniProt P24822); assay: mouse intestinal alkaline phosphatase activators, dose response, biochemical, luminescence, uHTS hits (AID 488783); format: functional
[6] = biological target: T1, Alkaline phosphatase, tissue-nonspecific isozyme (Homo sapiens, UniProt P05186); assay: activation of tissue-nonspecific alkaline phosphatase – biochemical, TNAP isozyme, mouse IAP uHTS hits, selectivity assay for mouse IAP activator project, dose response (AID 488880); format: functional
T1 sequence (P05186 whole entry): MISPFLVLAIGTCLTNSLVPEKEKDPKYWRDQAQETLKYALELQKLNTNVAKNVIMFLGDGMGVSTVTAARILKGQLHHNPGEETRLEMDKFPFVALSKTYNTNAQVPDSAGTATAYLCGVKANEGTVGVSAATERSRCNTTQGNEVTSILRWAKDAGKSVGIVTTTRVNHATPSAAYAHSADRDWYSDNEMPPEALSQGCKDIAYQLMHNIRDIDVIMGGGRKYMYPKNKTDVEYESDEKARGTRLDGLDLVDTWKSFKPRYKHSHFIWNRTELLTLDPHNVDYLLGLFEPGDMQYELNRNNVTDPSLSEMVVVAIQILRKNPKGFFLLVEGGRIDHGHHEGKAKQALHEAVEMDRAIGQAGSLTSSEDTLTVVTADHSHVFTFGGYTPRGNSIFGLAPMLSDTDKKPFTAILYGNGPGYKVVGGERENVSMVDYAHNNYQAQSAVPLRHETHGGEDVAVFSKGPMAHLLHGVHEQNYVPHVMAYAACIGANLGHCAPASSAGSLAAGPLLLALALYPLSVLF

[7] = biological target: Benomyl/methotrexate resistance protein (Candida albicans, UniProt P28873); assay: Candida albicans Mdr1 pump inhibition curves – singleplex, Cherry Pick1 hits, dose response (AID 588608); format: functional
[8] = biological target: Multidrug resistance protein CDR2 (Candida albicans (strain SC5314 / ATCC MYA-2876) (Yeast), UniProt P78595); assay: inhibition of Nile Red efflux via Candida CDR2 – S. cerevisiae AD1-8u, singleplex, Cherry Pick1 hits, dose response (AID 588604); format: functional
[9] = biological target: 26S proteasome non-ATPase regulatory subunit 14 (Homo sapiens, UniProt O00487); assay: inhibition of proteasome subunit RPN11 – biochemical, fluorescence polarization, uHTS hits, confirmation (AID 602368); format: functional
[10] = biological target: 72 kDa type IV collagenase (Homo sapiens, UniProt P08253); assay: Dose Response validation of uHTS RPN11 inhibitor hits using a MMP-2 Fluorescence assay.; format: functional
[11] = biological target: Prothrombin (Bos taurus, UniProt P00735); assay: thrombin protease inhibitors – biochemical, fluorescence polarization, uHTS hits, dose response (AID 602369); format: functional
[12] = biological target: T2, Histone-lysine N-methyltransferase NSD2 (Homo sapiens, UniProt O96028); format: biochemical
T2 sequence (O96028 whole entry): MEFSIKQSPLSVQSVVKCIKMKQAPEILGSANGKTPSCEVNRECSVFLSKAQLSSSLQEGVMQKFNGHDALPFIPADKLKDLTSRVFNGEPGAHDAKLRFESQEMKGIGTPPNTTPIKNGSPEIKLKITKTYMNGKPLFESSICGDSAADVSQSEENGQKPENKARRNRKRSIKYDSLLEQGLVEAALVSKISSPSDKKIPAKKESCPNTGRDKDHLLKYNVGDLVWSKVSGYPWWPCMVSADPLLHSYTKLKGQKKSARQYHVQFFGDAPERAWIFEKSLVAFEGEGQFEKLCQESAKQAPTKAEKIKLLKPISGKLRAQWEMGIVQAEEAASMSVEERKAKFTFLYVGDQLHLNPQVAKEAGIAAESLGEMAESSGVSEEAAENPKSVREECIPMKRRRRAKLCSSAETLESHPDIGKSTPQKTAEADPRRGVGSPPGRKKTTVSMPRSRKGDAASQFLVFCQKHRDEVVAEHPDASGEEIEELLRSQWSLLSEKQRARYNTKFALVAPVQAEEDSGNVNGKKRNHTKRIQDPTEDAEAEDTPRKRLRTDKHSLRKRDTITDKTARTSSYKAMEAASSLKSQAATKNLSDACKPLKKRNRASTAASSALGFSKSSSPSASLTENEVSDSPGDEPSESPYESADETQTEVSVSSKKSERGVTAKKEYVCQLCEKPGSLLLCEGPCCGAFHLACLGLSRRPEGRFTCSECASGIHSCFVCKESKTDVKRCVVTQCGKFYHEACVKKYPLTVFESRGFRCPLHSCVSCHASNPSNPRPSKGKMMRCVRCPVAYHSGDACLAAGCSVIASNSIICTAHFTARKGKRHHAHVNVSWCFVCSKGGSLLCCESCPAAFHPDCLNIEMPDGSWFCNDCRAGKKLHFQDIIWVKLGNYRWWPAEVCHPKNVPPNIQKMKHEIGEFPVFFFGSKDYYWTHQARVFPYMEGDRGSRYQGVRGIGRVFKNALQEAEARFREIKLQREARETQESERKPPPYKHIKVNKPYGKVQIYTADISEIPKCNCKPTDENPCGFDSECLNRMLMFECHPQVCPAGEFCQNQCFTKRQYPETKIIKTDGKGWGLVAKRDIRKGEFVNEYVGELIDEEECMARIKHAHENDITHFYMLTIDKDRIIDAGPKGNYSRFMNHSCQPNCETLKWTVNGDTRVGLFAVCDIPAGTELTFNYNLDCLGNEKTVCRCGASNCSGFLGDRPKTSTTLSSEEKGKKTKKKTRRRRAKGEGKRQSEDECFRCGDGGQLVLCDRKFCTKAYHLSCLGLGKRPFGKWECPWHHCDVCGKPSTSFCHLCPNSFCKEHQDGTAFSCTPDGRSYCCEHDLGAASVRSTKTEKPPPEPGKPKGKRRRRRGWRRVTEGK

[13] = biological target: Melanin-concentrating hormone receptor 1 (Homo sapiens, UniProt Q99705); assay: Late-stage fluorescence-based counterscreen for antagonists of the G-protein coupled receptor 7 (GPR7): cell-based dose response assay to identify antagonists of the melanin-concentrating hormone receptor 1 (MCHR1) Set 6.; format: functional
[14] = biological target: Neuropeptides B/W receptor type 1 (Homo sapiens, UniProt P48145); assay: human NPBW1 receptor blockade, IC50 – cell-based, fluorescence, dose response, set 6, late-stage follow-up (AID 588583); format: functional
Sequence of Neuropeptides B/W receptor type 1 (P48145 whole entry): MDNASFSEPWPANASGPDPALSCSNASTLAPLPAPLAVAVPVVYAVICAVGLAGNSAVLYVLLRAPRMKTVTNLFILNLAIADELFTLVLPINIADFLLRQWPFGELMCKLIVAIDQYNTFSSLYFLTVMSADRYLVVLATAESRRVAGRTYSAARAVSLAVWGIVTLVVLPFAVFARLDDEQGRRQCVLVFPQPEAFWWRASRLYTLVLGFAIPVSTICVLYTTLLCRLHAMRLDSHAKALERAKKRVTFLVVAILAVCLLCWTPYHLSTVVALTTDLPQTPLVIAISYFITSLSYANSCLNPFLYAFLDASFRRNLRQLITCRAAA

Sequence of FAD-linked sulfhydryl oxidase ALR (P55789 whole entry): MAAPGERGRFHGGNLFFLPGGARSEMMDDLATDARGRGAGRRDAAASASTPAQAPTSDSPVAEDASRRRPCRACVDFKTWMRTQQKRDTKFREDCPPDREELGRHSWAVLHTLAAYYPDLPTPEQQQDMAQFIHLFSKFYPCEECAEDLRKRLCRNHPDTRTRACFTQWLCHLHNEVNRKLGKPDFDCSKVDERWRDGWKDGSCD
Sequence of Benomyl/methotrexate resistance protein (P28873 whole entry): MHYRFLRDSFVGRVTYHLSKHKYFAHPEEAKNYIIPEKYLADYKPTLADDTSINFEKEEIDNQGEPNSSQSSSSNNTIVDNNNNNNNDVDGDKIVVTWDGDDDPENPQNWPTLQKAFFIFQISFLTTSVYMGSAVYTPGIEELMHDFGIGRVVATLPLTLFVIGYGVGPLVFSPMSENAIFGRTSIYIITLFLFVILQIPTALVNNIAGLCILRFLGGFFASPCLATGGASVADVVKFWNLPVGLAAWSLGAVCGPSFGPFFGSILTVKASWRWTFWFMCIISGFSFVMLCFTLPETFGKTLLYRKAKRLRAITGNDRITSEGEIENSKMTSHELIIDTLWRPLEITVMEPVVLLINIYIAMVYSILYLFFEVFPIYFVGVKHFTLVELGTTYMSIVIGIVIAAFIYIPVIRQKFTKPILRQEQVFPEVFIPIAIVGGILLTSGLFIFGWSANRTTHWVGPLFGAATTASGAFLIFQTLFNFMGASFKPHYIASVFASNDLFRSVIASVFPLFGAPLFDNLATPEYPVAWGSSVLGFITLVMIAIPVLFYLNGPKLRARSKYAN
Sequence of Large T antigen (P03070 whole entry): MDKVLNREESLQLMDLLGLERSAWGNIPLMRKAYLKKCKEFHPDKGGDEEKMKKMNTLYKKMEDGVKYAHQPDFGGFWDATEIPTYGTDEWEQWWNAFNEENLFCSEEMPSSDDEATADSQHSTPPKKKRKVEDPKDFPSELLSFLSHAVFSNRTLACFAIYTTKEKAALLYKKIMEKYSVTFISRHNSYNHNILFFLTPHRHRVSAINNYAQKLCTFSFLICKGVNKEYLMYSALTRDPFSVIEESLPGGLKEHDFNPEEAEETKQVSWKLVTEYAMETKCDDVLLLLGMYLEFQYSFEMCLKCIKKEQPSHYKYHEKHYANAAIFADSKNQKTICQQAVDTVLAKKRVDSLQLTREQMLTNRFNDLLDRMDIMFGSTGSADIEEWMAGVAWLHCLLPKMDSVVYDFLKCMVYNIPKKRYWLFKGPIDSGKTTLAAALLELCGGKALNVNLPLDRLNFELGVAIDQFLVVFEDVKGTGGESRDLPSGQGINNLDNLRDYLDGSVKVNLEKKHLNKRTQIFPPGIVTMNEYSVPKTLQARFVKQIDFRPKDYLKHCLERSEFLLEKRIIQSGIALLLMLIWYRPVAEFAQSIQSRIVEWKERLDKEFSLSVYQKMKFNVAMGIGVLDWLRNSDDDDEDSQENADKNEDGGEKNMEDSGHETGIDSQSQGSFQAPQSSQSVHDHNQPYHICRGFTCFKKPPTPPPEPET
Sequence of Multidrug resistance protein CDR2 (P78595 whole entry): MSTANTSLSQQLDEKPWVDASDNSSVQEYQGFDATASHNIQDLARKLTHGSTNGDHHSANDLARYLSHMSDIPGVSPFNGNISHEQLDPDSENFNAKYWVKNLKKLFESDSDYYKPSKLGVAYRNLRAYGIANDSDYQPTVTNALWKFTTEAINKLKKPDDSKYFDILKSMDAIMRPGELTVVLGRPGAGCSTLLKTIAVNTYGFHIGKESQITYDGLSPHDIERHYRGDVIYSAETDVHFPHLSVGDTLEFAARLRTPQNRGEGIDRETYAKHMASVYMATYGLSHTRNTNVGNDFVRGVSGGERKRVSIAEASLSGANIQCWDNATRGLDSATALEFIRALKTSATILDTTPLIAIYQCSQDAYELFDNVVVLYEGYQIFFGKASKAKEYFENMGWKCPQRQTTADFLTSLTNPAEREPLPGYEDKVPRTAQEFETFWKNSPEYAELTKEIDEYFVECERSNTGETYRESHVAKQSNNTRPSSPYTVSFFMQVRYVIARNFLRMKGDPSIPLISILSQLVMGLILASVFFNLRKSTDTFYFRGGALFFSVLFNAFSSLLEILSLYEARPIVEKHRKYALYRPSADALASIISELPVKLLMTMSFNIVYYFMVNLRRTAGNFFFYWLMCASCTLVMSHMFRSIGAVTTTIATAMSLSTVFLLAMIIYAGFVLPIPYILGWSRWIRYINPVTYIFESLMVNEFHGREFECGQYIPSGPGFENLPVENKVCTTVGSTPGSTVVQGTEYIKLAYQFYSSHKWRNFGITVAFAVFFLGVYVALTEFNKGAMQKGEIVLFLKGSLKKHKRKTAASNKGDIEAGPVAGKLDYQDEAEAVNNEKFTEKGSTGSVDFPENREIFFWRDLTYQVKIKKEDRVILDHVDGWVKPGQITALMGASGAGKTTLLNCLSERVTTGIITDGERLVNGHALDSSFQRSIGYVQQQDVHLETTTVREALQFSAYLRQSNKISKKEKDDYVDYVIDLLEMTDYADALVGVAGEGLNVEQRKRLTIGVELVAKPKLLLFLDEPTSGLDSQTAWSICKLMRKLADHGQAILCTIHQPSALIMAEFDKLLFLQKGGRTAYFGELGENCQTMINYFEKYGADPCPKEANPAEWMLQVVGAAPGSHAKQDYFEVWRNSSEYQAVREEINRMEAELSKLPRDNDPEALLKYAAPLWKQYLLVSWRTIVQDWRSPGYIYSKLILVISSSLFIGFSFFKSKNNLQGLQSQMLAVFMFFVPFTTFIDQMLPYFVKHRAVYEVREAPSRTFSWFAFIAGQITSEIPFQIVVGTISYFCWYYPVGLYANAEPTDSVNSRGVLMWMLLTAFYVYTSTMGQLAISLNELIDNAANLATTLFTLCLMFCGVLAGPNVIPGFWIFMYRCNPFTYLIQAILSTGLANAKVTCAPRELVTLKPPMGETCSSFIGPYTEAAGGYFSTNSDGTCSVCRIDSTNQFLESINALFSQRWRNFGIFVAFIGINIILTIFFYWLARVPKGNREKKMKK
Sequence of Melanin-concentrating hormone receptor 1 (Q99705 whole entry): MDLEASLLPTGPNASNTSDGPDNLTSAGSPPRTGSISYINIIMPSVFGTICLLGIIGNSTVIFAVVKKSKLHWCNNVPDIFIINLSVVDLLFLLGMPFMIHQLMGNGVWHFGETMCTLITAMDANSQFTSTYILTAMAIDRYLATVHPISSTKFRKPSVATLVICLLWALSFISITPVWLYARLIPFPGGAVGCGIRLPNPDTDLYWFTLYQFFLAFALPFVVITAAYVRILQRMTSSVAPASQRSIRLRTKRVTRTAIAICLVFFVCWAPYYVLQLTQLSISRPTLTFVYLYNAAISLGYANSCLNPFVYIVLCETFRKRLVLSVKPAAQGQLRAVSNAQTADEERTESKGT
Sequence of 72 kDa type IV collagenase (P08253 whole entry): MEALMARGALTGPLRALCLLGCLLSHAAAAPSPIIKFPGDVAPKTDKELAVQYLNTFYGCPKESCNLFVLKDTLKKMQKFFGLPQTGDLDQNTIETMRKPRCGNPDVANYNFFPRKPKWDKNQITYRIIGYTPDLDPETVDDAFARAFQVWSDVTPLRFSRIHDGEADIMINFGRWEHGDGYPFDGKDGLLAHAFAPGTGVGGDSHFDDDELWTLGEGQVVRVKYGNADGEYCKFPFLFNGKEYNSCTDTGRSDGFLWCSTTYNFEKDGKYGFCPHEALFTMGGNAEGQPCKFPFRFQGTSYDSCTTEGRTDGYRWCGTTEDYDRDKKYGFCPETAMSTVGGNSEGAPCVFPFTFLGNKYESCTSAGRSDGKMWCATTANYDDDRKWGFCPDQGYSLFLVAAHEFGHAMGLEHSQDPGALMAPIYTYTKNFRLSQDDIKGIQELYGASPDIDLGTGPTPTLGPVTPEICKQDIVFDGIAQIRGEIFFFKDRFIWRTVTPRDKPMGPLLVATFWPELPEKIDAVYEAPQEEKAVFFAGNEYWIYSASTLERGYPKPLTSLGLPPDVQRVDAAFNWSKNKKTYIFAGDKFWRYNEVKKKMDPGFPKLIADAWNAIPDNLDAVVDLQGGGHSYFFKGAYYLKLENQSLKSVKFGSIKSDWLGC
Sequence of 26S proteasome non-ATPase regulatory subunit 14 (O00487 whole entry): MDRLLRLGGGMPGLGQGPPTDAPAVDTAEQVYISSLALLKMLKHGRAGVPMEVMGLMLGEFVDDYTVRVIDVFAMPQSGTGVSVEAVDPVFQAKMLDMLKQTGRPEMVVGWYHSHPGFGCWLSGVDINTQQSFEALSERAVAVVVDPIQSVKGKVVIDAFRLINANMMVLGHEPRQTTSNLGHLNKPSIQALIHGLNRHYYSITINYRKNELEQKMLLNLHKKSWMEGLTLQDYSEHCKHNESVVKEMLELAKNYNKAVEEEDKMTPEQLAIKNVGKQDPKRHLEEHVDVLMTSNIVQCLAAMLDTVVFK

CC1CC(C)CN(C(=O)C2CCC(CNc3c(N4CCCCC4)c(=O)c3=O)CC2)C1 (centres undefined)
CC50 [1]: > 30 µM (inconclusive)

O=C(O)C(c1ccccc1)N1C(=O)/C(=C\c2ccc(O)c(O)c2)SC1=S (centres undefined)
IC50 [2]: 7.85 µM (active)
EC50 [3]: 59.1 µM (active)
AC50 [4]: 0.208 µM (active)
EC50 [5]: 61 µM (active)
EC50 [6]: 24.1 µM (active)
EC50 [7]: 2.72 µM (active)
EC50 [8]: 4.78 µM (active)
IC50 [9]: 26.3 µM (active)
IC50 [10]: 39.7 µM (active)
IC50 [11]: 30.7 µM (active)
AC50 [12]: 4.05 µM (active)

CCOc1ccc(C(C#N)c2c(Cl)cnn(Cc3cccc4ccccc34)c2=O)c(F)c1F (centres undefined)
IC50 [13]: 0.601 µM (active)
IC50 [14]: 0.601 µM (active)
